Among the test systems are HL-60(TB) leukemia; HT29 colon; IGROV1 ovarian; K-562 leukemia; NCI-H226 lung; OVCAR-8 ovarian; RPMI-8226 leukemia; RXF 393 renal; TK-10 renal; UACC-62 melanoma.
Common to all, as to experiment: growth of human tumour cells (NCI), 48 h

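Briefly, cells in 96-well plates were exposed to five compound concentrations for 48 h, and endpoints were estimated by linear interpolation. Here, GI50 denotes the concentration required for 50% inhibition of growth. TGI: total growth inhibition.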

For seven compounds, TGI and GI50 results are on record in PubChem BioAssay (NCI).

For the compound `N#Cc1c(C(N)=O)ncn1Cc1ccccc1`, the TGI in the experiment with HL-60(TB) leukemia, in the experiment with HT29 colon, in the experiment with IGROV1 ovarian, with K-562 leukemia, with NCI-H226 lung and in the experiment with OVCAR-8 ovarian was over 100 µM each time. For the same compound, the TGI in the experiment with RPMI-8226 leukemia, in the experiment with RXF 393 renal, with TK-10 renal and in the experiment on UACC-62 melanoma was over 100 µM each time.

With `O=C1CC(c2ccccc2)NCN1` (stereo not given), the TGI with HL-60(TB) leukemia, in the experiment with HT29 colon, in the experiment on IGROV1 ovarian, in the experiment on K-562 leukemia, with NCI-H226 lung and in the experiment on OVCAR-8 ovarian was over 100 µM throughout. Moreover, the TGI with RPMI-8226 leukemia, in the experiment on RXF 393 renal, in the experiment with TK-10 renal and in the experiment on UACC-62 melanoma was over 100 µM throughout.

With `O=C(/C=C/C12c3ccccc3C(c3ccccc31)C1C(=O)NC(=O)C12)c1ccco1` (stereo not given), the GI50 in the experiment with HL-60(TB) leukemia is 1.58 µM; in the experiment with HT29 colon, 2.28 µM; with IGROV1 ovarian it was 3.24 µM; in the experiment on K-562 leukemia, 2.19 µM; in the experiment with NCI-H226 lung it was 3.03 µM; in the experiment with OVCAR-8 ovarian, 3.12 µM. The GI50 in the experiment with RPMI-8226 leukemia is 1.1 µM; in the experiment on RXF 393 renal it was 1.79 µM; with TK-10 renal it was 3.7 µM; with UACC-62 melanoma it was 2.16 µM. Besides, the TGI in the experiment with HL-60(TB) leukemia is 4.89 µM; with HT29 colon, 5.06 µM; with IGROV1 ovarian, 9.73 µM; with K-562 leukemia, 12.5 µM; in the experiment with NCI-H226 lung, 9.85 µM; in the experiment with OVCAR-8 ovarian, 12.5 µM. Further, the TGI with RPMI-8226 leukemia was 4.21 µM; in the experiment on RXF 393 renal, 3.48 µM; in the experiment with TK-10 renal, 10.9 µM; in the experiment with UACC-62 melanoma it was 4.9 µM.

As to `O=C(Nc1cccc(-c2nc3ccccc3[nH]2)c1)c1cccc(NC(=O)c2ccco2)c1`, the GI50 in the experiment on HL-60(TB) leukemia is 5.43 µM; with HT29 colon, 1.91 µM; in the experiment on IGROV1 ovarian, 5.34 µM; with K-562 leukemia, 2.03 µM; with NCI-H226 lung, 2.72 µM; with OVCAR-8 ovarian, 2.18 µM. In addition, the GI50 in the experiment with RPMI-8226 leukemia was 2.33 µM; with RXF 393 renal, 1.51 µM; in the experiment with TK-10 renal, 2.88 µM; in the experiment on UACC-62 melanoma it was 1.79 µM. The TGI with HL-60(TB) leukemia is 17.4 µM; in the experiment with HT29 colon it was 3.4 µM; in the experiment on IGROV1 ovarian, 17 µM; in the experiment with K-562 leukemia it was 4.36 µM; with NCI-H226 lung it was 15.9 µM; with OVCAR-8 ovarian it was 5.14 µM. Further, the TGI was 8.16 µM in the experiment on RPMI-8226 leukemia, 3.55 µM in the experiment with RXF 393 renal, 6.66 µM in the experiment on TK-10 renal and 3.5 µM with UACC-62 melanoma.

Consider `COc1cc(/C=C2\C[C@H]3[C@@H]4CC=C5C[C@@H](OC(C)=O)CC[C@]5(C)[C@H]4CC[C@]3(C)[C@H]2OC(C)=O)ccc1OCCCn1ccnc1`, for which the GI50 in the experiment on HL-60(TB) leukemia is 12.7 µM; in the experiment with HT29 colon, 18.5 µM; with IGROV1 ovarian, 16.8 µM; with K-562 leukemia it was 5.59 µM; in the experiment on NCI-H226 lung it was 7.78 µM; in the experiment on OVCAR-8 ovarian, 10.7 µM. For the same compound, the GI50 in the experiment on RPMI-8226 leukemia was 0.515 µM; in the experiment with RXF 393 renal, 1.78 µM; in the experiment on TK-10 renal it was 3.73 µM; with UACC-62 melanoma, 8.81 µM. The TGI in the experiment with HL-60(TB) leukemia was 34.1 µM; with HT29 colon, over 50 µM; in the experiment with IGROV1 ovarian, over 50 µM; in the experiment on K-562 leukemia, 19.7 µM; in the experiment with NCI-H226 lung it was 24.6 µM; in the experiment on OVCAR-8 ovarian, 24.7 µM. In addition, the TGI in the experiment on RPMI-8226 leukemia amounted to 1.77 µM; in the experiment on RXF 393 renal, 10.4 µM; with TK-10 renal it was 13.3 µM; in the experiment with UACC-62 melanoma it was 16.1 µM.

Consider `COc1ccc(C(=O)O)c2c(=O)c3ccccc3[nH]c12`, for which the TGI with HL-60(TB) leukemia, in the experiment with HT29 colon, in the experiment on IGROV1 ovarian, in the experiment on K-562 leukemia, in the experiment on NCI-H226 lung and in the experiment with OVCAR-8 ovarian was over 100 µM each time. In addition, the TGI with RPMI-8226 leukemia, in the experiment on RXF 393 renal, in the experiment with TK-10 renal and in the experiment on UACC-62 melanoma was over 100 µM in each case.

In the case of `Cc1ccc(NC(=O)/C(=N/NC(=O)CC#N)C2C(=O)N(c3ccccc3)N=C2N)cc1C` (stereo not given), the TGI in the experiment on HL-60(TB) leukemia, with HT29 colon, in the experiment with IGROV1 ovarian, in the experiment with K-562 leukemia, with NCI-H226 lung and in the experiment with OVCAR-8 ovarian was over 100 µM throughout. The TGI in the experiment on RPMI-8226 leukemia, in the experiment on RXF 393 renal, with TK-10 renal and in the experiment with UACC-62 melanoma was over 100 µM in each case.
